Reference: ChEMBL document CHEMBL1201862, “PubChem BioAssay data set” (2004)
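Briefly, cells in 96-well plates were exposed to five compound concentrations for 48 h, and endpoints were estimated by linear interpolation. GI50 is the concentration that inhibits growth by half.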 Activity calls are given as the source filed them. Cut-off read from the data, not from the text of the source: active = GI50 up to about 1.1 µM and inactive = higher.

Legend:
Assay in all cases: inhibition of tumour cell growth, NCI panel, 48 h
MCF7 = system: MCF7
UO-31 = system: UO-31
HCC 2998 = system: HCC 2998
IGROV-1 = system: IGROV-1
MOLT-4 = system: MOLT-4
M14 = system: M14
A549 = system: A549
KM12 = system: KM12
ACHN = system: ACHN
SK-MEL-28 = system: SK-MEL-28
OVCAR-3 = system: OVCAR-3
RPMI-8226 = system: RPMI-8226
UACC-62 = system: UACC-62
NCI-H226 = system: NCI-H226
OVCAR-4 = system: OVCAR-4
SW-620 = system: SW-620
MDA-N = system: MDA-N
NCI-H522 = system: NCI-H522
U-251 = system: U-251
OVCAR-8 = system: OVCAR-8

SMILES	GI50 (MCF7)	GI50 (UO-31)	GI50 (HCC 2998)	GI50 (IGROV-1)	GI50 (MOLT-4)	GI50 (M14)	GI50 (A549)	GI50 (KM12)	GI50 (ACHN)	GI50 (SK-MEL-28)	GI50 (OVCAR-3)	GI50 (RPMI-8226)	GI50 (UACC-62)	GI50 (NCI-H226)	GI50 (OVCAR-4)	GI50 (SW-620)	GI50 (MDA-N)	GI50 (NCI-H522)	GI50 (U-251)	GI50 (OVCAR-8)
O=C1c2ccccc2C(=O)c2c1ccc1conc21	1.03 µM (active)	4.33 µM (inactive)	15.8 µM (inactive)	2.98 µM (inactive)	0.632 µM (active)	2.26 µM (inactive)	4.95 µM (inactive)	3.24 µM (inactive)	1.94 µM (inactive)	3.41 µM (inactive)	0.296 µM (active)	0.875 µM (active)	2.45 µM (inactive)	7.06 µM (inactive)	0.7 µM (active)	2.1 µM (inactive)	0.392 µM (active)	1.7 µM (inactive)	1.62 µM (inactive)	1.66 µM (inactive)
O=S(=O)(CCCCl)SCCCCl	19.6 µM (inactive)	65.5 µM (inactive)	> 100 µM (inactive)	37.5 µM (inactive)	3.17 µM (inactive)	21.5 µM (inactive)	68.4 µM (inactive)	46.3 µM (inactive)	55.7 µM (inactive)	39.3 µM (inactive)	31.1 µM (inactive)	21.9 µM (inactive)	36.1 µM (inactive)	> 65.5 µM (inactive)	15.3 µM (inactive)	19.1 µM (inactive)	27 µM (inactive)	17.1 µM (inactive)	45.9 µM (inactive)	13.3 µM (inactive)
